The values that follow come from patent US7794995B2, “Purified PKB Ser 473 kinase and uses thereof” (priority 2002, dated 2010).

The subject of assay [1] is PKB Ser473 kinase. Conditions: second kinase activity, taken to be the PKB Ser473 kinase; 0-100 microM tested.
Assay [2] relates to PKB Ser473 phosphorylation. The conditions noted are these: literature: Hill et al. 2001; Alessi et al. 1996; cited from earlier work.
For another assay, the target named is T1, PDK1 (Homo sapiens, UniProt O15530).
T1 sequence (O15530 1-556): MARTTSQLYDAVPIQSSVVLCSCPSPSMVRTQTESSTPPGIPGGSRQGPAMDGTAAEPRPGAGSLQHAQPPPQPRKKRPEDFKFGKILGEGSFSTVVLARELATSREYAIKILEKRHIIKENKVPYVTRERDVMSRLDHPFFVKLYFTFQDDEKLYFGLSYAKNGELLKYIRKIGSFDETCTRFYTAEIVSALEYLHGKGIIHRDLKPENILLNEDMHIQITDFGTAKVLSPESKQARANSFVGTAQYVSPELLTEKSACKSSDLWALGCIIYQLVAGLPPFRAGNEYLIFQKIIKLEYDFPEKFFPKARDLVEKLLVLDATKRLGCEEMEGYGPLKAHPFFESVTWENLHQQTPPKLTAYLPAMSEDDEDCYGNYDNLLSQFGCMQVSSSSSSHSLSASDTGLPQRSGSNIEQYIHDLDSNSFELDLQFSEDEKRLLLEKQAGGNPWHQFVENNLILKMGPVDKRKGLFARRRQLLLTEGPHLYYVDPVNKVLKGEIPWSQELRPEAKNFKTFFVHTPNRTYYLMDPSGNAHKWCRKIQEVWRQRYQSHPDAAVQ
The conditions noted are these: literature: Hill et al. 2001; cited from earlier work.

The test system of assay [3] is PKB Ser473 kinase. Briefly: Ser473 kinase activity (FSY/FAY peptide assay) in subcellular fractions of treated serum-starved HEK293 cells. The assay is classed as cell-based, human. The conditions noted are these: 0.1 microM insulin, pervanadate 0.1 mM, 10 mins, LY294002 50 microM, 30 mins, versus basal. On the procedure:
HEK 293 cells transiently transfected with the PKB constructs were serum starved, stimulated or not with 0.1 mM pervanadate for 10 min at 37° C., and subcellular fractions were generated. Briefly, HEK 293 cells were washed once in ice-cold phosphate-buffered saline, and scraped in ice-cold fractionation buffer containing 20 mM HEPES-NaOH, pH 7.4, 250 mM sucrose, phosphatase inhibitors (10 mM sodium fluoride, 1 mM sodium pyrophosphate, 0.1 mM sodium orthovanadate, 2 μM microcystin LR [Alexis]), and protease inhibitors (1 mM PMSF and 1 mM benzamidine). After homogenization either by 10 passes through a 26-gauge needle, or by using a Kinematica homogenizer (10 strokes on speed 2 followed by 30 strokes on speed 10), subcellular fractions were prepared as previously described (Hill and Hemmings, 2002, Methods Enzymol 345: 448-463). The plasma membrane pellets were resuspended in 50 mM Tris-HCl (pH7.4) containing protease and phosphatase inhibitors as described above. Protein concentration of the subcellular fractions was determined by the Bradford method (Bio-Rad), using bovine serum albumin as standard. […]
Next, it was examined if membrane-associated Ser473 kinase activity was dependent on PI3-kinase signalling. […] PM fractions were assayed for Ser473 kinase activity, and also analyzed by immunoblotting for phospho-PKB and total PKB.

Assay [4] deals with PKB phosphorylation on Thr308 and Ser473. Nature of the assay: Immunoblotting of plasma membrane fractions for phospho-PKB and total PKB after cell treatment. Conditions: serum-starved HEK293 cells, immunoblot; for PKB phosphorylation on Thr308 and Ser473: 0.1 microM insulin, pervanadate 0.1 mM, 10 mins. The assay is classed as cell-based, human. On the procedure:
The presence of PKB in each fraction was determined by immunoblotting with an anti-HA antibody (12CA5). In addition, the phosphorylation status of PKB in each of the fractions was assessed by immunoblotting with phospho-specific PKB antibodies after immunoprecipitation with the HA antibody. Briefly, following SDS-PAGE, proteins were transferred onto Immobilon-P membranes (Millipore). Non-specific signals were blocked by incubating the membrane in TBST buffer (50 mM Tris-HCl, pH 7.4, 150 mM NaCl, 0.1% Tween-20) containing 5% skim milk for 1 hour at room temperature. Incubation with antibodies was performed in TBST for phospho-specific antibodies, TBST containing 1% skim milk for polyclonal antibodies and TBST containing 5% skim milk for monoclonal antibodies, at 4° C. overnight. Antibodies specific for PKB phosphorylated on Thr308 are commercially available (Cell Signalling Technologies). Antibodies specific for PKB phosphorylated on Ser473 was produced and purified as previously described (Hill and Hemmings, 2002, Methods Enzymol 345: 448-463). Pan-PKB antibody has been previously described (Jones et al., 1991, Proc Natl Acad Sci USA 88: 4171-4175).
Next, it was examined if membrane-associated Ser473 kinase activity was dependent on PI3-kinase signalling. Serum-starved HEK293 cells were treated with 0.1 microM insulin, the insulin mimetic pervanadate (0.1 mM, 10 mins.), the PI 3-kinase inhibitor LY294002 (50 microM, 30 mins.), or left untreated. PM fractions were assayed for Ser473 kinase activity, and also analyzed by immunoblotting for phospho-PKB and total PKB.

A further assay deals with PKBα. Briefly: Subcellular fractionation of HEK 293 cells transfected with PKB constructs, anti-HA immunoblotting. The assay is classed as cell-based, human. The conditions noted are these: 0.1 mM pervanadate, 10 min, 37° C., serum-starved transfected HEK 293 cells. From the text:
In order to characterize and purify the PKB Ser473 kinase, we reasoned that the kinase might be constitutively active at the plasma membrane (PM). To this end, we developed a subcellular fractionation protocol to generate fractions enriched in the PM. To determine the efficacy of the procedure, the fractionation behavior of products of two PKB constructs was examined: hemagglutinin (HA) tagged PKBα (HA-PKBα) and HA-PKBα containing a myristoylation/palmitylation signal (m/p-HA-PKBα).
HEK 293 cells transiently transfected with the PKB constructs were serum starved, stimulated or not with 0.1 mM pervanadate for 10 min at 37° C., and subcellular fractions were generated. […] Protein concentration of the subcellular fractions was determined by the Bradford method (Bio-Rad), using bovine serum albumin as standard. […]
The presence of PKB in each fraction was determined by immunoblotting with an anti-HA antibody (12CA5). In addition, the phosphorylation status of PKB in each of the fractions was assessed by immunoblotting with phospho-specific PKB antibodies after immunoprecipitation with the HA antibody. […]

Entries after “also recorded” stand apart in the source; their conditions may differ. Bounds are passed on as bounds.

With `CN[C@@H]1C[C@H]2O[C@@](C)([C@@H]1OC)n1c3ccccc3c3c4c(c5c6ccccc6n2c5c31)C(=O)NC4` [staurosporine], the “Staurosporine concentration up to which the kinase activity is insensitive” value with PKB Ser473 kinase [1] is > 100 µM. For the same compound, the “Sensitivity of insulin-stimulated PKB Ser473 phosphorylation to the inhibitor” value in assay [2] is listed as “staurosporine-insensitive; also recorded: not sensitive”. Moreover, the “Effect on PDK1” value on PDK1 is “inhibits PDK1”.
As to insulin, the “Ser473 kinase activity in plasma membrane fractions” value in the assay on PKB Ser473 kinase [3] is “neither stimuli increased Ser473 kinase activity above basal levels”. Also, the “PKB phosphorylation on Thr308 and Ser473” value in assay [4] is “induced PKB phosphorylation on both Thr308 and Ser473”.
Turning to pervanadate, the “Ser473 kinase activity in plasma membrane fractions” value in the assay with PKB Ser473 kinase [3] is on record as “neither stimuli increased Ser473 kinase activity above basal levels”. Besides, in assay [4], the “PKB phosphorylation on Thr308 and Ser473” value was “induced PKB phosphorylation on both Thr308 and Ser473”; the “Potency as activator of PKB phosphorylation compared with insulin” value was “more potent activator of PKB phosphorylation than insulin”. In addition, in the assay on PKBα, the “Translocation of membrane-targeted m/p-HA-PKBα” value is “no translocation was observed” and the “Translocation of wild type HA-PKBα to the plasma membrane fraction” value was “A portion of PKBα translocated to the PM fraction”.
